According to doi:10.1101/2024.08.25.609621 (bioRxiv, 2024):
Like-named read-outs stand apart in the source and are kept apart here.

Molecular target: SARS-CoV-2 NSP3 macrodomain (Mac1), P43 crystal form (Severe acute respiratory syndrome coronavirus 2, UniProt P0DTD1)
Format: binding
Settings: for 1-BDC: PanDDA background density correction; for Total number of conformations: ligand conformations modeled in Mac1 crystal structure; for X-ray crystallography: Binding site: site where the ligand is bound in the X-ray crystal structure
[1] = crystal soak, soak concentration 10 mM
[2] = crystal soak, soak concentration 10 mM, TRUE = ligand hit
[3] = soak concentration 10 mM, TFA/DMSO background map
[4] = TRUE = crystal structure with ligand determined
[5] = crystal soak concentration 10 mM, event 1
[6] = crystal soak concentration 10 mM, P43 crystals
[7] = crystal soak concentration 10 mM
[8] = crystal soak concentration 20 mM
[9] = crystal soak concentration 20 mM, event 1
[10] = crystal soak concentration 20 mM, P43 crystals
[11] = site of Mac1 where ligand bound in crystal structure
[12] = crystal soak 10 mM, P43 crystals
[13] = occupancy estimate from PanDDA 1-BDC
[14] = X-ray crystal structure determined (TRUE)
[15] = site of ligand in X-ray crystal structure

Row | SMILES | 1-BDC | Total number of conformations | Pandda run, overall: Hit [12] | Pandda run, overall: Modeled [12] | PanDDA run, DMSO background map: 1-BDC (crystal soak 10 mM) | PanDDA run, DMSO background map: Hit (crystal soak 10 mM) | 2*(1-BDC) (%) [13] | X-ray crystal structure [14] | Binding site [15] | also measured
1 | O=C(O)C(F)(F)F.OCC1C2C=CC(C2)N1c1ncnc2[nH]ccc12 (stereo not shown) [AVI-3712] |  |  |  |  |  |  |  |  |  | Pandda run, overall: Modeling comment [1]: Weak density, not modeled; Pandda run, overall: Hit [2]: TRUE; PanDDA run, DMSO background map: 1-BDC (soak concentration 10 mM): 0.15; PanDDA run, DMSO background map: Hit (soak concentration 10 mM): TRUE; PanDDA run, TFA/DMSO background map: 1-BDC [3]: 0.05; PanDDA run, TFA/DMSO background map: Hit [3]: TRUE
2 | CNc1ccc(NS(=O)(=O)c2cc3cccc(C)c3s2)cn1 [AVI-345] | 0.26 | 1 |  |  |  |  |  |  |  | Occupancy difference (refined_occupancy - 2*(1-BDC)): 0; Refined ligand occupancy (%): 52%; X-ray crystal structure [4]: TRUE; PanDDA run, DMSO background map: 1-BDC [5]: 0.17; Pandda run, overall: Hit [6]: TRUE; Pandda run, overall: Modeling comment [6]: Duplicate, not modeled; PanDDA run, DMSO background map: Hit [7]: TRUE; PanDDA run, DMSO background map: Hit [8]: TRUE; PanDDA run, DMSO background map: Modeled [8]: TRUE; PanDDA run, DMSO background map: 1-BDC [9]: 0.26; Pandda run, overall: Hit [10]: TRUE; Pandda run, overall: Modeled [10]: TRUE; 2*(1-BDC) (%) (occupancy estimate from PanDDA BDC): 52%; Binding site [11]: Adenosine
3 | OC(c1ccccc1)C1CCCN1c1ncnc2[nH]ccc12 (stereo not shown) [AVI-3652] | 0.22 | 1 | TRUE | TRUE | 0.22 | TRUE | 44% |  |  | X-ray crystallography: Binding site: Adenosine
4 | OCC(CC1CCCC1)Nc1ncnc2[nH]ccc12 (stereo not shown) [AVI-3691] | 0.18 | 1 | TRUE | TRUE | 0.18 | TRUE | 36% | TRUE | Adenosine | 
5 | OCC(Nc1ncnc2[nH]ccc12)C1CCC1 (stereo not shown) [AVI-3638] | 0.13 | 1 | TRUE | TRUE | 0.13 | TRUE | 26% | TRUE | Adenosine | 
6 | Cc1ccc(CC(CO)Nc2ncnc3[nH]ccc23)cc1 (stereo not shown) [AVI-3683] | 0.15 | 2 | TRUE | TRUE | 0.15 | TRUE | 30% | TRUE | Adenosine | 
7 | CC(C)(C)CC(CO)Nc1ncnc2[nH]ccc12 (stereo not shown) [AVI-3648] | 0.13 | 1 | TRUE | TRUE | 0.13 | TRUE | 26% | TRUE | Adenosine | 
8 | OCC(Nc1ncnc2[nH]ccc12)C1CCc2ccccc21 (stereo not shown) [AVI-3693] | 0.22 | 2 | TRUE | TRUE | 0.22 | TRUE | 44% | TRUE | Adenosine | 
9 | OCC(Cc1ccoc1)Nc1ncnc2[nH]ccc12 (stereo not shown) [AVI-3705] | 0.21 | 1 |  |  |  |  | 42% | TRUE | Adenosine | Pandda run, overall: Modeled [1]: TRUE; Pandda run, overall: Hit [2]: TRUE; PanDDA run, DMSO background map: 1-BDC (soak concentration 10 mM): 0.21; PanDDA run, DMSO background map: Hit (soak concentration 10 mM): TRUE
10 | OCC(CC(F)(F)F)Nc1ncnc2[nH]ccc12 (stereo not shown) [AVI-3637] | 0.23 | 1 |  |  |  |  | 46% | TRUE | Adenosine | Pandda run, overall: Modeled [1]: TRUE; Pandda run, overall: Hit [2]: TRUE; PanDDA run, DMSO background map: 1-BDC (soak concentration 10 mM): 0.23; PanDDA run, DMSO background map: Hit (soak concentration 10 mM): TRUE
11 | OCC1CC2(CCC2)CN1c1ncnc2[nH]ccc12 (stereo not shown) [AVI-3728] | 0.24 | 2 |  |  |  |  | 48% |  |  | Pandda run, overall: Modeled [1]: TRUE; Pandda run, overall: Modeling comment [1]: Distal site, weak density, not modeled; Pandda run, overall: Hit [2]: TRUE; X-ray crystallography: Binding site: Adenosine; PanDDA run, DMSO background map: 1-BDC (soak concentration 10 mM): 0.24; PanDDA run, DMSO background map: Hit (soak concentration 10 mM): TRUE
12 | Cc1cc2c(=O)n(CCN3C(=O)c4ccccc4S3(=O)=O)nnc2s1 [AVI-341] | 0.18 | 1 |  |  |  |  | 36% |  |  | X-ray crystal structure [4]: TRUE; PanDDA run, DMSO background map: 1-BDC [5]: 0.18; Pandda run, overall: Hit [6]: TRUE; Pandda run, overall: Modeled [6]: TRUE; PanDDA run, DMSO background map: Hit [7]: TRUE; PanDDA run, DMSO background map: Modeled [7]: TRUE; PanDDA run, DMSO background map: Hit [8]: TRUE; PanDDA run, DMSO background map: 1-BDC [9]: 0.19; Pandda run, overall: Hit [10]: TRUE; Pandda run, overall: Modeling comment [10]: Duplicate, not modeled; Binding site [11]: Adenosine
13 | O=C(O)C(F)(F)F.OCC(Cc1cccc(F)c1)Nc1ncnc2[nH]ccc12 (stereo not shown) [AVI-3706] |  |  |  |  |  |  |  |  |  | Pandda run, overall: Modeling comment [1]: TFA only
14 | CCC1(O)CCN(c2ncnc3[nH]ccc23)C1 (stereo not shown) [AVI-612] | 0.17 | 1 |  |  |  |  | 34% |  |  | Pandda run, overall: Modeled (crystal soak, soak concentration 5 mM): TRUE; Pandda run, overall: Hit (crystal soak, soak concentration 5 mM, TRUE = ligand hit): TRUE; X-ray crystal structure (crystal structure with Mac1 determined (TRUE)): TRUE; Binding site (site of ligand in Mac1 crystal structure): Adenosine; PanDDA run, DMSO background map: 1-BDC (soak concentration 5 mM): 0.17; PanDDA run, DMSO background map: Hit (soak concentration 5 mM): TRUE
15 | O=C(O)C(F)(F)F.OC1c2ccccc2CC1Nc1ncnc2[nH]ccc12 (stereo not shown) [AVI-3634] |  |  |  |  |  |  |  |  |  | Pandda run, overall: Modeling comment [1]: TFA only
16 | OCC(Nc1ncnc2[nH]ccc12)c1ccccc1 (stereo not shown) [AVI-3715] | 0.18 | 1 |  |  |  |  | 36% | TRUE | Adenosine | Pandda run, overall: Modeled [1]: TRUE; Pandda run, overall: Hit [2]: TRUE; PanDDA run, DMSO background map: 1-BDC (soak concentration 10 mM): 0.18; PanDDA run, DMSO background map: Hit (soak concentration 10 mM): TRUE
17 | OCC(Cc1ccccn1)Nc1ncnc2[nH]ccc12 (stereo not shown) [AVI-3696] | 0.13 | 2 | TRUE | TRUE | 0.13 | TRUE | 26% | TRUE | Adenosine | 
18 | Cc1ccc(CC(CO)Nc2ncnc3[nH]ccc23)cc1C (stereo not shown) [AVI-3684] | 0.15 | 2 | TRUE | TRUE | 0.15 | TRUE | 30% | TRUE | Adenosine | 
